Source: patent US6573289B1, “Naphthalene derivatives, their production and use” (Takeda Chemical Industries, Ltd., priority 1998, dated 2003)
Structures can show the parent of a compound that is named as a salt.

Legend:
Rat Steroid C17-20-Lyase = biological target: T1, Rat Steroid C17-20-Lyase (Rattus norvegicus, UniProt P11715); assay: Assay of inhibitory activity on rat steroid C17-20-lyase in vitro; type: biochemical; conditions: rat testicular microsomes, 10 nM [1,2-3H]-17-α-hydroxyprogesterone, NADPH, 7 min at 37° C.; products testosterone and androstenedione reduced by 50%
T1 construct: testicular microsomes were prepared by a series of centrifugation; from tissue; host or cells: testicular microsomes of 13-week old male SD rats
T1 sequence (P11715 1-507): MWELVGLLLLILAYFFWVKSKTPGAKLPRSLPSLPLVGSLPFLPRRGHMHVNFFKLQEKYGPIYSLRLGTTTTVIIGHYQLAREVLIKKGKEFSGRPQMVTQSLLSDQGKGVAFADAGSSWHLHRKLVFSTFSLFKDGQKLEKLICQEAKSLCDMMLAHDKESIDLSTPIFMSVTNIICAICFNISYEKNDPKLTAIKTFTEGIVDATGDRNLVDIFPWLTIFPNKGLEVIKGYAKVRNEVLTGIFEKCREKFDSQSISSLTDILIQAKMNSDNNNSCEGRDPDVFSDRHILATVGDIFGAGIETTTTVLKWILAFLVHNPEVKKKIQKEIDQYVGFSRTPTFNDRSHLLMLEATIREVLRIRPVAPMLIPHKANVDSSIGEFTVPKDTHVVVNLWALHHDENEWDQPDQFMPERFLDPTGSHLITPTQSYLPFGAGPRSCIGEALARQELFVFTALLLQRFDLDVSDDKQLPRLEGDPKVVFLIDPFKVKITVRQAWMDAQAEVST
Protocol: Assay of Inhibitory Activity on Rat Steroid C17-20-Lyase In Vitro
Inhibitory activity was determined according to the method described in The Prostate, vol.26, 140-150(1995) with some modifications.
Testes excised from 13-week old, male SD rats were homogenized, and testicular microsomes were prepared by a series of centrifugation. The microsome protein (7 μg/10 μl) was added to 10 μl of 100 mM phosphate buffer (pH 7.4) in which 10 nM (final concentration) [1,2-3H]-17-α-hydroxyprogesterone, NADPH, and test compounds were dissolved. The reaction mixture was incubated for 7 min at 37° C., terminated by addition of 40 μl of Ethyl acetate, and briefly centrifuged. The substrate and the products (testosterone and androstenedione) in the upper phase were separated by silica gel thin layer chromatography. Detection of the spots and measurement of the radioactivity were performed by a BAS 2000 Bioimage analyzer. The concentration of the test compounds necessary to reduce the concentration of the products by 50% (The concentration in the control group in which no test compound was added was taken as 100%) was calculated, and shown in Table 1.

[1] = system: testosterone biosynthesis; assay: Assay of inhibitory activity on testosterone biosynthesis in rat; type: in vivo; conditions: male SD rats, oral, 50 mg/kg, serum testosterone 2 h later, percentage of control group
Protocol: Assay of Inhibitory Activity on Testosterone Biosynthesis in Rat
Test compounds were orally administered to 9-week old, male SD (Spague-Dawley) rats at a dose of 50 mg/kg. Two-h later blood was taken and testosterone concentration in serum was measured by radioimmunoassay. The percentage of the testosterone concentration of the groups of rats, which received test compounds, to that of the control group was calculated, and regarded as the inhibitory activity.

| SMILES | IC50 (Rat Steroid C17-20-Lyase) | Inhibitory activity on testosterone biosynthesis (T/C, %) [1] |
| --- | --- | --- |
| COc1ccc2cc(C(C)(OC)c3c[nH]cn3)ccc2c1 (stereo not drawn) [Example 19, 4-[1-Methoxy-1-(6-methoxynaphthalen-2-yl)ethyl]-1H-imidazole] | 35 nM |  |
| COc1ccc2cc(C(O)(c3c[nH]cn3)C3CC3)ccc2c1 (stereo not drawn) [Example 4, Cyclopropyl-(6-methoxynaphthalen-2-yl)-(1H-imidazol-4-yl)methanol Fumarate] | 64 nM |  |
| COc1ccc2cc(C(O)(c3ccncc3)C(C)C)ccc2c1 (stereo not drawn) [Example 9, 1-(6-Methoxynaphthalen-2-yl)-2-methyl-1-(pyridin-4-yl)-1-propanol] | 32 nM |  |
| COc1ccc2cc(C(O)(c3c[nH]cn3)C(C)C)ccc2c1F (stereo not drawn) [Example 11, 1-(5-Fluoro-6-methoxynaphthalen-2-yl)-1-(1H-imidazol-4-yl)-2-methyl-1-propanol] | 32 nM | 9.0% |
| COc1ccc2cc(C(O)(c3c[nH]cn3)C(C)C)ccc2c1 (stereo not drawn) [Example 1, 1-(1H-Imidazol-4-yl)-1-(6-methoxynaphthalen-2-yl)-2-methyl-1-propanol] | 33 nM | 2.0% |
| CCC(O)(c1ccc2cc(OC)ccc2c1)c1c[nH]cn1 (stereo not drawn) [Example 12, 1-(1H-Imidazol-4-yl)-1-(6-methoxynaphthalen-2-yl)-1-propanol] | 41 nM | 10% |
